Measured values as given in patent US8496927B2, “CD20 negatively converted B-cell malignant lymphoma cell line and utilization thereof” (National University Corporation Nagoya University, priority 2006, dated 2013).

Tests used:
CD20 mRNA = CD20 mRNA expression in RRBL1 cells by RT-PCR; format: cell-based, human; details: for induction of CD20 mRNA: added to RRBL1, analyzed with elapse of time (summary)
Protocol: (§1) 5-aza-2′-deoxycytidine (SIGMA, hereinafter abbreviated as “Aza”) was injected to a culture solution of RRBL1 cells, and the cells were washed after 24 hours. After culturing for further 2 days, RNA and the whole-cell lysate was extracted from the cells, and subjected to analyses by RT-PCR and western blotting. As a result, CD20 mRNA expression increased after the Aza treatment (FIG. 7A, RT, lane 2). In the western blotting analysis, the CD20 protein expression was observed after the Aza treatment (FIG. 7A, IB lane 2).
(§2) Subsequently, changes with time regarding CD20 mRNA expression and CD20 protein expression were examined (FIG. 7B) Aza was injected to a culture solution on day 0, and cultured at 37° C. for 24 hours (day 1). Then, the cells were washed and further cultured for 1 to 6 days (day 2 to day 7). RNA and protein were extracted from the cells after culturing, and subjected to analyses by western blotting (using anti-CD20 antibody, anti-IRF4 antibody, anti-PU.1 antibody, anti-DNMT1 antibody, and […]) and RT-PCR.

CD20 protein = CD20 protein expression in RRBL1 cells by western blotting; format: cell-based, human; details: for induction of CD20 protein: added to RRBL1, analyzed with elapse of time (summary)
Protocol: as §1, §2
Aza and TSA (Trichostatin: histone deacetylase inhibitor) were injected singly or in combination to a culture supernatant of RRBL1 cells. The cells were washed after one day from Aza injection. After further cultured for 2 days, protein was extracted from the cells. In the TSA injected group, protein was extracted from the cells at the point of 24 hours from TSA injection. For the group injected in combination use, Aza was first injected and cultured for 1 day. The cells after washed were cultured for 1 day, then TSA was injected thereto, and further, the cells were dissolved after the elapse of one day to extract protein. Thus obtained each sample was subjected to SDS-PAGE, and western blotting using an anti-CD20 antibody and an anti-GAPDH antibody was then performed.

[1] = test system: DNMT1 (DNA methyltransferase 1); assay: DNMT1 expression in RRBL1 cells by western blotting; format: cell-based, human; details: day 1 after Aza injection
Protocol: as §2
(§3) IRF4 and Pu.1 are transcriptional factors that have been reported to bind to a CD20 gene promoter. […] DNMT1 (DNA methyltransferase 1) has reported to be decomposed by Aza.

IRF4 and Pu.1 = IRF4 and Pu.1 expression in RRBL1 cells by western blotting; format: cell-based, human; details: time course after Aza injection
Protocol: as §2, §3

Raji cells = assay: Rituximab resistance test: number of living cells after culture with rituximab; format: cell-based; details: rituximab 500 mg/ml, 10% FCS, 37° C. for 2 days
Protocol: (§4) Rituximab ([…]) was added to a PRMI1640 culture solution containing 10% FCS and the solution was cultured at 37° C. for 2 days, and the number of living cells was measured. Further, Raji cells were cultured under the same conditions (control group). […] Thus, it was confirmed that the RRBL1 cells indicates rituximab resistance in vitro.

RRBL1 cells [2] = assay: as above; format: cell-based, human; details: rituximab 500 mg/ml, 10% FCS, 37° C. for 2 days
Protocol: as §4

RRBL1 cells [3] = assay: Number of living RRBL1 cells treated with Aza and TSA, cultured with or without rituximab; format: cell-based, human; details: cultured for 2 days
Description: RRBL1 cells (untreated group) and RRBL1 cells treated with Aza and TSA (treated group) were respectively cultured for 2 days in the absence of rituximab (●, ▪) or in the presence of rituximab (♦, ▴), and the number of living cells were compared (FIG. 8C).

[4] = test system: CD20 positive malignant lymphoma; assay: Use experience of rituximab-containing chemotherapy, Hospital of Nagoya University; format: in vivo, human
Protocol: Cases of CD20 positive malignant lymphoma in which rituximab-containing chemotherapy was carried out in the Hospital of Nagoya University, School of Medicine are shown. The rituximab-containing chemotherapies were performed in 124 cases in about 5 years from […] to 2006, and in 36 cases (29%) among 124 cases, recurrence or relapse were observed. In 19 cases, about half of these cases, tissue biopsies were carried out again, and in 5 cases (26.3% among the cases subjected to rebiopsy), negative conversion of CD20 expression was confirmed. Prognoses of the cases where CD20 was negatively converted were extremely bad, and patients in all the cases died within 1 year after the confirmation of negative conversion.
In about 5 years from September 2001, CD20 positive malignant lymphoma cases subjected to chemotherapy including rituximab in this facility was 124 cases (FIG. 13), and 36 cases (29.0%) in the 124 cases were recurred or relapsed.

CD20 positive lymphoma = details: Non-patent document 10; cited from earlier work
[5] = RRBL1 cells, Aza on day 0, washed day 1, cultured to day 7
[6] = RRBL1 cells, washed after 24 hours, cultured further 2 days

Compound | CD20 mRNA expression, change with time (CD20 mRNA; [5]) | CD20 mRNA expression (RT-PCR) (CD20 mRNA; [6]) | induction of CD20 mRNA (CD20 mRNA) | culturing time by which CD20 expression is induced (CD20 protein; RRBL1) [days] | CD20 protein expression, change with time (CD20 protein; [5]) | day on which CD20 protein expression level reached peak (CD20 protein; [5]) [days] | CD20 protein expression (western blotting) (CD20 protein; [6]) | induction of CD20 protein (CD20 protein) | DNMT1 expression [1] | IRF4 and Pu.1 expression (IRF4 and Pu.1) | proliferation (number of living cells) (Raji cells) | proliferation (number of living cells) (RRBL1 cells [2]) | proliferation (number of living cells) in the presence of rituximab (RRBL1 cells [3]) | cases with negative conversion (disappearance or decrease) of CD20 expression ([4]; 5 of 19 recurred/relapsed cases subjected to rebiopsy, FCM and immunostaining) [%] | cases recurred or relapsed ([4]; 36 of 124 cases given rituximab-containing chemotherapy, about 5 years from 2001) [%] | patients showing rituximab resistance (CD20 positive lymphoma)
Nc1ncn([C@H]2C[C@H](O)[C@@H](CO)O2)c(=O)n1 [Aza, 5-aza-2′-deoxycytidine] | the same tendency as the CD20 protein expression | increased | possible | 1 to 7 | increased from day 1 | 3 | observed | possible | significant decrease | tendency of temporal increase |  |  |  |  |  | 
CC(/C=C/C(=O)NO)=C\[C@@H](C)C(=O)c1ccc(N(C)C)cc1 [TSA, Trichostatin A] |  |  | possible |  |  |  |  | possible |  |  |  |  |  |  |  | 
rituximab |  |  |  |  |  |  |  |  |  |  | significantly repressed | repression of proliferation was not observed | significantly inhibited | 26.3 | 29 | 5 out of 48
